Experimental data published in patent US5334593A, “Anxiolytic drugs” (Yamasa Shoyu Kabushiki Kaisha, priority 1990, dated 1994).

Assays:
male ICR mice [1] = test: Anti-conflict activity (Vogel type conflict test); assay type: in vivo, mouse (ICR); details: for number of water-drinking: 10 minutes
Protocol: The method is described below.
Male ICR mice (6 weeks old) were deprived of water for one day before the test. The mice were then individually placed in the test box, and given water ad libitum for 10 minutes. Thereafter, they were placed back in their home cages, given water ad libitum overnight, and again deprived of water for two days. The mice thus treated were used for the measurement.
ABU, the test compound, was suspended in physiological saline containing 0.5% CMC, and the suspension was administered intraperitoneally to the above mice. .On the other hand, as a positive control compound, DZP was administered in the same manner. Fifteen minutes after the administration,the mice were placed in the test box, and allowed to freely drink one count of water (one drop: approximately 40 ul ). Thereafter, a 50 V electric foot shock was given from the grid floor to the mice every time they drunk one count of water. Under such conditions, the number of water-drinking was counted over a period of 10 minutes. The number of water-drinking performed by a group of mice to which the test compound was administered was compared with that of water-drinking performed by a group of mice to which a vehicle (physiological saline containing 0.5% CMC and no test compound) was administered.
The significant difference was ascertained by the Mann-Whitney's U-test.

male Wistar rats = test: Anti-conflict activity (Geller type conflict test); assay type: in vivo, rat (Wistar); details: for number of lever pressing during the alarm periods / number of lever pressing during the safety periods: one hour, vs control; for minimal effective dose: Rattus norvegicus, oral, from results of Test Example 1, read-out: Minimum Effective Dose for Anti-Conflict Activity [B]
Protocol: The activities of the test compounds were evaluated by the Geller type conflict test which is frequently employed as a preclinical evaluation method of an anxiolytic drug [see Psychophamacologia, 1, 482-492 (1960 )]. The method is described below.
1-Amino--5--chlorouracil (ACU) , 1-amino-5-bromouracil (ABU) and 1-amino-5-fluorouracil (AFU) were used as the test compounds. These compounds were respectively suspended in distilled water containing 0 . 5% carboxymethyl cellulose (CMC) to obtain suspensions suitable for oral administration. In addition, diazepam (DZP) serving as a positive control compound was also prepared as a suspension suitable for oral administration in the same manner.
A skinner box (manufactured by OHARA & Co. , Ltd. ) used for the test was equipped with a lever, a light and a buzzer, and its floor was a grid made of stainless steel. When the lever was pressed, pellets (food) were supplied from a feeder, and, if necessary, an electric shock was given from the floor.
Male Wistar rats were deprived of food during the night to restrain an increase in the body weight, and a training of the animals was started. After the number of lever pressing performed by the rats reached the predetermined level by following a reinforcement schedule in which food pellets were supplied once every ten times of lever pressing (FR-10) , two periods, that is, a 7-minute safety period and a 3-minute alarm period were alternately incorporated in the schedule - During the alarm period, the rats were signaled by the light and buzzer, and further by an electric shock given from the floor every time they were supplied with food pellets. Those rats which were trained to press the lever 19 times or less during the alarm period were used for the measurement. Immediately after a suspension of a test compound prepared in the above-described manner was administered orally to the rats, they were placed in the skinner box, and the numbers of lever pressing were counted over a period of one hour. The numbers thus obtained were compared with those obtained by the control wherein distilled water containing 0.5% CMC and no test compound was orally administered to the rats and the number of lever pressing was counted for one hour. The significant difference was ascertained by the Wilcoxoh's signed rank test. The results are shown in FIG. 1A, FIG. 1B, FIG. 1C, FIG. 2A and FIG. 2B.
To the rats used for the above test, no drugs were administered for one week, and then they were repeatedly used for the same test.
Further, the minimum effective dose (B) for anti-conflict activity of each of the above-described test compounds was determined on the basis of the results obtained in Test Example 1.

[2] = Acute toxicity (oral administration); details: mouse, in vivo, male ICR mice, Litchfield-Wilcoxon method
Protocol: The acute toxicity (LD50 value) per oral administration was determined by the following method.
The test compound (1-amino-5-bromouracil (ABU) or 1-amino-5-chlorouracil (ACU) was suspended in distilled water containing 0.5% carboxymethyl cellulose (CMC). ABU or ACU was administered orally to male ICR mice (1 group: 10 mice) in a dose of 1000-2800 mg/kg or 500-1400 mg/kg, and the LD50 values were determined according to the Litchfield-Wilcoxon method. The results are shown in Table 2.

ICR mice = test: Acute toxicity (intraperitoneal administration); assay type: in vivo, mouse (ICR); details: one week
Protocol: 1-Amino-5-bromouracil (ABU) was suspended in physiological saline containing 0.5% carboxymethyl cellulose (CMC). ABU was administered intraperitoneally to 8 ICR mice in a dose of 500 mg/kg, and their lethality was observed over a period of one week.
Further, 1-amino-5-chlorouracil (ACU) was administered intraperitoneally to 10 male ICR mice in a dose of 357 mg/kg, and their lethality was observed over a period of one week.

in vivo = details: mouse, in vivo, po
Protocol: (§1) The muscle relaxant activities of the test compounds, 1-amino-5-bromouracil(ABU), 1-amino--5-chlorouracil (ACU) and diazepam (DZP), were determined in accordance with the method of L. L. Coughenour et al. [see Pharmacol. Biochem. & Behav., 6, 351-353 (1977)].
(§2) Male ICR mice were placed on a 13 cm×13 cm No. 4 wire screen, and the screen was then rotated by 180 degrees. Those mice which were able to return to the screen within one minute were referred to "successful" mice. The suspension of each test compound prepared in the same manner as in Test Example 1 was administered orally to the mice. The mice were then subjected to the above test. The dose of the test compound at which 50% of the mice successfully returned to the screen was determined as ED50 (A).
(§3) Furthermore, the validity of each of the test compounds as an anxiolytic drug was expressed as A/B value.

male ICR mice [3] = test: Muscle relaxant activity (rotated wire screen test); details: muscle relaxant ED50 / minimum effective dose for anti-conflict activity
Protocol: as §1, §2, §3

[4] = cited from earlier work

## Nn1cc(Br)c(=O)[nH]c1=O [ABU, 1-amino-5-bromouracil]
Male ICR mice [1]; 20 mg/kg i.p.
  sensitivity to an electric shock: no decrease in the sensitivity to an electric shock was noted
Male ICR mice [1]; ABU 5, 10, 20 and 50 mg/kg i.p., significant only at 20 mg/kg
  number of water-drinking: a significant increase in the number of water-drinking was noted only at the dose of 20 mg/kg
Male Wistar rats; 10 mg/kg oral
  number of lever pressing during the alarm periods: significantly increased
  number of lever pressing during the safety periods: did not significantly change
Male Wistar rats; 30 mg/kg oral
  number of lever pressing during the alarm periods: significantly increased
  number of lever pressing during the safety periods: did not significantly change
Male Wistar rats; 50 mg/kg oral
  number of lever pressing during the alarm periods: significantly increased
  number of lever pressing during the safety periods: did not significantly change
Male Wistar rats
  minimal effective dose: 10 mg/kg
[2]
  LD50: 1920 mg/kg
ICR mice; 500 mg/kg i.p., 8 ICR mice
  lethality: no death was observed
In vivo
  ED50: 74.1 mg/kg
Male ICR mice [3]
  Validity [A/B]: 7.4

## Nn1cc(Cl)c(=O)[nH]c1=O [ACU, 1-Amino--5--chlorouracil]
Male Wistar rats; 20 mg/kg oral
  number of lever pressing during the alarm periods: significantly increased
  number of lever pressing during the safety periods: did not significantly change
Male Wistar rats; 30 mg/kg oral
  number of lever pressing during the alarm periods: significantly increased
  number of lever pressing during the safety periods: did not significantly change
Male Wistar rats
  minimal effective dose: 20 mg/kg
[2]
  LD50: 971 mg/kg
ICR mice; 357 mg/kg i.p., 10 male ICR mice
  lethality: no death was observed
In vivo
  ED50: 46 mg/kg
Male ICR mice [3]
  Validity [A/B]: 2.3

## Nn1cc(F)c(=O)[nH]c1=O [AFU, 1-amino-5-fluorouracil]
Male Wistar rats; 20 mg/kg oral
  number of lever pressing during the alarm periods: significantly increased
  number of lever pressing during the safety periods: did not significantly change

## CN1C(=O)CN=C(c2ccccc2)c2cc(Cl)ccc21 [DZP, diazepam, reference compound]
Male ICR mice [1]; 2 mg/kg i.p.
  behaviors of the mice when receiving an electric shock: lack of both vocalization and escape behavior
  sensitivity of the mice to an electric shock: decreased
  number of water-drinking: significantly increased
Male Wistar rats; 5 mg/kg oral
  number of lever pressing during the alarm periods: significantly increased
Male Wistar rats; 10 mg/kg oral
  number of lever pressing during the alarm periods: significantly increased
Male Wistar rats; 20 mg/kg oral
  number of lever pressing during the alarm periods: significantly increased
  number of lever pressing during the safety periods: significantly decreased
Male Wistar rats; 50 mg/kg oral
  number of lever pressing during the safety periods: significantly decreased
Male Wistar rats
  minimal effective dose: 5 mg/kg
In vivo
  ED50: 8.8 mg/kg
Male ICR mice [3]
  Validity [A/B]: 1.8

## CCC(C)n1c(=O)[nH]c(C)c(Br)c1=O (stereo not shown) [bromacil]
[4]; oral, single administration
  minimum effective dose for single administration: 100 mg/kg
[4]; orally administered
  anxiolytic activity: low anxiolytic activity
